Source: patent publication US10144746B2 (GLOBAL BLOOD THERAPEUTICS, INC., priority 2015, dated 2018)

The substances below were run against Human plasma kallikrein (Homo sapiens (Human), UniProt P03952) (assay: In vitro plasma kallikrein inhibition assay (chromogenic substrate D-Pro-Phe-Arg-pNa, absorbance at 405 nm, IC50 determination)).
Assay type: biochemical

Human plasma kallikrein, sequence (P03952 391-638): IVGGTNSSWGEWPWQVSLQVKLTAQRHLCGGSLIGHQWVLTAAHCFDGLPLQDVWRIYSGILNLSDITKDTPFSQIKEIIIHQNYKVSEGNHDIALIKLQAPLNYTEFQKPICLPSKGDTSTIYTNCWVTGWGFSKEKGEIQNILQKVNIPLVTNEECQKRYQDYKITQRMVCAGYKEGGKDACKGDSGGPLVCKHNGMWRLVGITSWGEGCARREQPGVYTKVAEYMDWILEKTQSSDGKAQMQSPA
Human plasma kallikrein, sequence (P03952 20-390 partner): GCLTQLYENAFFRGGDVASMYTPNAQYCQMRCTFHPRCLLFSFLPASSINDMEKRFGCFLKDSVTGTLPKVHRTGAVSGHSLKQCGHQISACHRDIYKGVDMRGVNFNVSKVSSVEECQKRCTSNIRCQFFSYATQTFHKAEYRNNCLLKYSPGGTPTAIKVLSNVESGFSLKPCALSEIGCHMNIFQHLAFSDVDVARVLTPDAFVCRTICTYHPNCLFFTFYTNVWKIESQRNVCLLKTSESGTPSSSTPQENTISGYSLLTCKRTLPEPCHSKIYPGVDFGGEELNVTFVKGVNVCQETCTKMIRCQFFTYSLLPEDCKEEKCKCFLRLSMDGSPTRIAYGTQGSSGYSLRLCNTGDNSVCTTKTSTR

Row | Substance | KLKB1 pIC50
1 | (±)-N-[(4-carbamimidoylphenyl) methyl]-12-(4- fluorophenyl)-8-methyl-15- oxatetracyclo- [6.6.1.0^2,^7.0^9,1^4]pentadeca- 2,4,6,9,11,13-hexaene-4- carboxamide [Example 346] | 7.26
2 | (±)-N-[(6-amino-2,4- dimethylpyridin-3-yl) methyl]-12-(2,4- difluorophenyl)tetracyclo- [6.6.1.0^2,^7.0^9,1^4]hexadeca- 2,4,6,9,11,13-hexaene-4- carboxamide and (±)-N-[(6- amino-2,4-dimethylpyridin- 3-yl)methyl]-11-(2,4- difluorophenyl)tetracyclo [6.6.1.0^2,^7.0^9,1^4]hexadeca- 2,4,6,9,11,13-hexaene-4- carboxamide [Example 261] | 6.32
3 | (±)-N-[(6-amino-2,4- dimethylpyridin-3-yl)-methyl]- 12-(2,4-difluorophenyl)-15- methyl-15-azatetracyclo [6.6.1.0^2,^7.0^9,1^4]pentadeca- 2,4,6,9,11,13- hexaene-4-carboxamide and (±)-N-[(6-amino-2,4- dimethylpyridin-3-yl)methyl]- 11-(2,4-difluorophenyl)-15- methyl-15-azatetra-cyclo [6.6.1.0^2,^7.0^9,1^4]pentadeca- 2,4,6,9,11,13-hexaene-4- carboxamide [Example 115] | 4
4 | (±)-N-[(6-amino-2,4- dimethylpyridin-3-yl)methyl]- 12-(4-fluorophenyl)-1,8- dimethyl-15- oxatetracyclo[6.6.1.0^2,^7.0^9,1^4] pentadeca-2,4,6,9,11,13- hexaene-4-carboxamide and (±)-N-[(6-amino-2,4- dimethylpyridin-3-yl)methyl]- 11-(4-fluorophenyl)-1,8- dimethyl-15-oxatetracyclo [6.6.1.0^2,^7.0^9,1^4]pentadeca- 2,4,6,9,11,13-hexaene-4- carboxamide [Example 339] | 4
5 | (±)-N-[(6-amino-2,4- dimethylpyridin-3-yl)methyl]- 12-(phenylsulfanyl)-15- oxatetracyclo[6.6.1.0^2,^7.0^9,1^4] pentadeca- 2,4,6,9,11,13-hexaene-4- carboxamide (±)-N-[(6-amino-2,4- dimethylpyridin-3-yl)methyl]-11- (phenylsulfanyl)-15- oxatetracydo[6.6.1.0^2,^7.0^9,1^4] pentadeca-2,4,6,9,11,13- hexaene-4-carboxamide [Example 164] | 6.86
6 | (±)-N-[(6-amino-2,4-dimethyl- pyridin-3-yl)methyl]-12-(2,4- difluorophenyl)-11-ethenyl-15- oxatetracyclo[6.6.1.0^2,^7.0^9,1^4] pentadeca-2,4,6,9,11,13- hexaene-4-carboxamide and (±)-N-[(6-amino-2,4- dimethylpyridin-3-yl)methyl]- 11-(2,4-difluorophenyl)-12- ethenyl-15-oxatetraoyclo [6.6.1.0^2,^7.0^9,1^4]pentadeca- 2,4,6,9,11,13-hexaene-4- carboxamide [Example 322] | 8.57
7 | (±)-N-[(6-amino-2,4-dimethyl- pyridin-3-yl)methyl]-12-(2,4- difluorophenyl)-11-methyl-15- oxatetracyclo[6.6.1.0^2,^7.0^9,1^4] pentadeca-2,4,6,9(14),10,12- hexaene-4-carboxamide and (±)-N-[(6-amino-2,4- dimethylpyridin-3-yl)methyl]-11- (2,4-difluorophenyl)-12- methyl-15-oxatetracyclo [6.6.1.0^2,^7.0^9,1^4]pentadeca- 2,4,6,9(14),10,12-hexaene-4- carboxamide [Example 310] | 7.7
8 | (±)-N-[(6-amino-4-ethoxy- 2-methylpyridin-3-yl)methyl]-12- (2,4-difluorophenyl)-16-oxo-15- azatetracyclo[6.6.1.0^2,^7.0^9,1^4] hexadeca-2,4,6,9,11,13- hexaene-4-carboxamide and (±)-N-[(6-amino-4-ethoxy-2- methylpyridin-3-yl)methyl]- 11-(2,4-difluorophenyl)-16-oxo- 15-azatetracyclo[6.6.1.0^2,^7.0^9,1^4] hexadeca-2,4,6,9,11,13- hexaene-4-carboxamide [Example 163] | 6.11
